Question: Which melting point does the source give for O=C(NC(=NCCCOc1ccccc1)Oc1ccccc1)c1ccccc1 here?
Answer: 75 °C

Question: With Cc1nc(-c2ccc(N)c(C#N)c2)c[nH]1 as the molecule, how does the melting point read?
Answer: 89 to 91 °C

Question: With COc1cc(C(=O)N2CCC(CCN3CCC(=C(c4ccccc4)c4ccccc4)CC3)(c3ccc(Cl)c(Cl)c3)C2)cc(OC)c1OC (centres undefined) as the molecule, how does the melting point read?
Answer: 90 to 94 °C

Question: With CC(=O)c1cc2cc(C(C)(C)C)ccc2o1 as the molecule, how does the melting point read?
Answer: 99 to 101 °C

Question: With Cc1cc(O)c(N)c([N+](=O)[O-])c1 as the molecule, how does the melting point read?
Answer: 197 to 199 °C

Question: With COC(=O)Cn1nnnc1CCC(NC(=O)CCC(C)(NC(=O)OCc1ccccc1)C(=O)O)C(=O)OC (centres undefined) as the molecule, how does the melting point read?
Answer: 64 to 65 °C

Question: With O=C(Nc1ccccc1)O[C@@H]1CN=C(c2ccccc2)O[C@H]1c1ccccc1 (racemic) as the molecule, how does the melting point read?
Answer: 111 °C

Question: For CCOc1ccccc1C1=NC(=O)C2=NC=NC2=N1, which melting point is on record?
Answer: 276 to 277 °C

Question: With CC(C)(C)c1cc(-c2ccc(NC(=O)CCCC(=O)O)cc2)cc(C(C)(C)C)c1O as the molecule, how does the melting point read?
Answer: 218 to 219 °C

Question: For O=C1c2cc(Br)ccc2-n2c1nc1ccccc1c2=O, which melting point is on record?
Answer: 288 to 290 °C

Question: For COC(=O)CCC(C)C1CCC2C3C(O)CC4CC(NC(=O)CNC(=O)OC(C)(C)C)CCC4(C)C3CC(O)C12C (centres undefined), which melting point is on record?
Answer: 110 to 114 °C

Question: With O=C(O)C1Cc2c(ncn2CCC2CCCCC2)CN1C(=O)C(c1ccccc1)c1ccccc1 (centres undefined) as the molecule, how does the melting point read?
Answer: 137 to 140 °C

Question: With COc1ccc(C2CC(=O)OC(=O)C2)cc1OC as the molecule, how does the melting point read?
Answer: 118 to 120 °C

Question: With C=C1CC2C(CCC3(C)C2CCC3(OC(C)=O)C(C)=O)C2(C)C1=CC(=O)CC2CCl (centres undefined) as the molecule, how does the melting point read?
Answer: 190 to 192 °C

Question: Which melting point does the source give for O=C(CN(Cc1ccccc1)c1c(C(=O)O)[nH]c2cc(Cl)cc(Cl)c12)c1ccccc1 here?
Answer: 266 to 267 °C

Question: With Cc1c(-c2ccc([N+](=O)[O-])cc2)sc2c1c(=O)c(OC(C)C)cn2Cc1c(F)cccc1F as the molecule, how does the melting point read?
Answer: 188 to 189 °C

Question: With O=C(NCc1ccn(-c2cc3nc(C(=O)O)c(=O)[nH]c3cc2C(F)(F)F)c1)Nc1cccc(F)c1 as the molecule, how does the melting point read?
Answer: 169 to 171 °C

Question: For CC(=O)SC[C@H](NC(=O)C(C)C)C(=O)NCCSC(=O)C(C)C, which melting point is on record?
Answer: 100 to 102 °C

Question: With O=C(NCC1(c2ccccc2)CCCCC1)Nc1ccc(Cl)cc1 as the molecule, how does the melting point read?
Answer: 164 to 166 °C

Question: For CCN(CC)CCN1c2cc(Cl)ccc2S[C@H]2[C@@H](O)[C@H](O)[C@@H](COC(C)=O)O[C@H]21, which melting point is on record?
Answer: 180 °C

Question: With Cc1cccc2c1C=Cc1ccccc1C2Cl (centres undefined) as the molecule, how does the melting point read?
Answer: 158 to 160 °C

Question: With CC1(C)CCc2cc(S(=O)(=O)C[N+](=O)[O-])ccc2O1 as the molecule, how does the melting point read?
Answer: 85 to 86.5 °C

Question: For Cn1cc(C2=C(c3cccc4ccccc34)C(=O)NC2=O)c2ccccc21, which melting point is on record?
Answer: 258 to 260 °C

Question: With NC(=NCC(F)(F)F)Nc1cncc(SCCCC(=O)Nc2ccccc2)n1 as the molecule, how does the melting point read?
Answer: 165 to 167 °C

Question: For O=C(O)CCC(Cc1ccccc1Cl)(C(=O)C=Cc1c(Cl)cccc1Cl)c1ccccc1 (centres undefined), which melting point is on record?
Answer: 140 to 143 °C

Question: For CN1CCC(C(=NNc2ccc(F)cc2)c2ccccc2F)CC1, which melting point is on record?
Answer: 125 to 126 °C

Question: For C[C@H](NC(=O)OCc1ccccc1)C(=O)c1ccc(OCc2ccccc2)cc1, which melting point is on record?
Answer: 89 to 91 °C

Question: Which melting point does the source give for C1=C(c2c[nH]c3ccccc23)CN(Cc2ccccc2)CC1 here?
Answer: 105 to 107 °C

Question: With COP(=S)(OC)Oc1nsc(C)c1C#N as the molecule, how does the melting point read?
Answer: 52 °C

Question: Which melting point does the source give for COc1cc2c(cc1Nc1ncc(Cl)c(Nc3ccc(OC)c4c3C(=O)N(C)C4)n1)CCN(CC(=O)N(C)C)CC2 here?
Answer: 202 to 203 °C

Question: Which melting point does the source give for O=C1CCC(c2ccc(F)cc2)CC1 here?
Answer: 104 to 106 °C

Question: With NC(=O)c1cc([N+](=O)[O-])ccc1C=Cc1ccccc1 as the molecule, how does the melting point read?
Answer: 270 °C

Question: With COc1ccc(CCNC(=O)C(N)=O)cc1OCCCCO as the molecule, how does the melting point read?
Answer: 47 to 49 °C

Question: For CN1C(=O)CCc2cc(Cl)ccc21, which melting point is on record?
Answer: 76 to 78 °C

Question: For Cn1c(C(=O)NC(CF)Cc2ccccc2)cc2c(O)cccc21 (centres undefined), which melting point is on record?
Answer: 161 to 162 °C

Question: For N#Cc1cc(N)ccc1NC(=O)c1ccc(N)cc1, which melting point is on record?
Answer: 242 to 244 °C

Question: For COc1ccc(-c2ncn(CCC(C)(C)NCC(O)c3ccc(O)c(CO)c3)n2)cc1 (centres undefined), which melting point is on record?
Answer: 142 to 145 °C

Question: With CCc1ccc(C(=O)N[C@H](Cc2ccccc2)C(=O)O)cc1 as the molecule, how does the melting point read?
Answer: 166 °C

Question: With Cc1cccc(N2CCN(CCCCCC(=O)N3Cc4ccccc4C3)CC2)c1C#N as the molecule, how does the melting point read?
Answer: 126 °C

Question: With NC(=O)c1cccc(Cc2c[nH]cn2)c1O as the molecule, how does the melting point read?
Answer: 198 °C

Question: Which melting point does the source give for CCOC(=O)C1CC(=O)c2nc(C)c(C)n2C1 (centres undefined) here?
Answer: 138 to 140 °C

Question: With O=C(O)C(=O)c1ccc(OCCOc2ccnc3ccccc23)cc1 as the molecule, how does the melting point read?
Answer: 271 °C

Question: With CC1(C)CCC[C@H](NC(c2ccccc2)(c2ccccc2)c2ccccc2)C(=O)N1 as the molecule, how does the melting point read?
Answer: 139 to 140 °C

Question: Which melting point does the source give for CN1C(=O)C2(COc3cc4c(cc32)OCCO4)c2c(-c3cnn(C)c3)cccc21 (centres undefined) here?
Answer: 220 to 222 °C

Question: Which melting point does the source give for C[C@H](C#Cc1cc(Cc2ccc(F)cc2)cs1)N(O)C(N)=O here?
Answer: 105 to 108 °C

Question: Which melting point does the source give for CCN(CC)S(=O)(=O)c1cc(Cl)c(Cl)c(Cl)c1S here?
Answer: 96 to 99 °C

Question: With CC(C(N)=O)c1ccc2c(c1)C(=O)Cc1ccccc1S2 (centres undefined) as the molecule, how does the melting point read?
Answer: 190 to 192 °C

Question: With O=c1ccn(-c2cccc(C(F)(F)F)c2)nc1-c1nncn1-c1ccccc1 as the molecule, how does the melting point read?
Answer: 103 to 104 °C

Question: Which melting point does the source give for Cc1cnc2n1-c1ccc(Cl)cc1C(c1ccccc1)=NC2 here?
Answer: 190 to 191 °C

— a melting point compilation (Tetko et al.; mined from patent text by program, amines drawn as free bases though some values may be those of a salt)
